Laboratory results reported in patent publication US20110281839A1, “COMBINATION THERAPY FOR THE TREATMENT OF BACTERIAL INFECTIONS” (priority 2010, published 2011).
“And” between values parts separate entries of the source, which are not always exact repeats. Equal entries are not always repeated. “Also recorded” adds a separate entry of the source. Structures can show the parent of a compound that is named as a salt. Where two headings read alike, the source gives them in different places.

How the values were obtained:
[1] = system: A. baumannii isolates; assay: Susceptibility of A. baumannii isolates by broth microdilution (CLSI methodology); type: cell-based; details: for MIC: Acinetobacter baumannii
Experimental: Susceptibility of the A. baumannii isolates to each of the agents was determined by broth microdilution using Clinical and Laboratory Standards Institute (CLSI) methodology at a central laboratory. […] The susceptibility of A. baumannii to other drugs was interpreted according to the standard procedures as defiend by CLSI (Clinical and Laboratory Standards Institute Test Procedures MO2-A10, Vol. 29, No. 1; M07-A8, Vol. 29, No. 2 and/or M100-S19, Vol. 29, No. 3; Jan. 2009).

[2] = system: A. baumannii; details: MICs as high as 16 μg/mL; doripenem 1 gram over a 4 hour infusion; cited from earlier work
[3] = system: A. baumannii; assay: Clinical and microbiological outcome at test of cure visit in subjects with nosocomial pneumonia, 3 clinical studies of doripenem; type: in vivo, human
Experimental: Each group received treatment of either doripenem alone or doripenem with concomitant therapy, as noted.
True concomitant therapy was determined by applying the following algorithm: treatment with the second antimicrobial was initiated during Study Days 1-14 and administered on the same study days as doripenem. In addition, the second antimicrobial was given for >1 day of the overlapping period. Concomitant therapy was assessed for the following antimicrobial agents: the fluoroquinolones ciprofloxacin and levofloxacin, colistin and the aminoglycosides amakacin and tobramycin.
Doripenem was administered at either 500 mg Q8H as a 1 hour infusion, 500 mg Q8H as a 4 hour infusion or 1g Q8H as a 4 hour infusion, depending on the specific clinical study, as noted in the Tables below.

[4] = isolate of each patient, doripenem + fluoroquinolone group
[5] = A. baumannii isolate of each patient, doripenem monotherapy group, monohydrate
[6] = isolate of each patient, doripenem + amikacin group, monohydrate
[7] = isolate of each patient, doripenem + colistin group, monohydrate
[8] = isolate of each patient, doripenem + tobramycin group, monohydrate
[9] = per patient, test of cure visit, doripenem 1 gram or 500 mg every 8 hours, listed as Doripenem Monotherapy, monohydrate
[10] = whole treatment group, test of cure
[11] = isolate of each patient, doripenem + colistin group
[12] = isolate of each patient, doripenem + tobramycin group
[13] = isolate of each patient, doripenem + amikacin group

C[C@H]1COc2c(N3CCN(C)CC3)c(F)cc3c(=O)c(C(=O)O)cn1c23 [Levofloxacin, levofloxacin]
MIC ([1]; isolate of each patient, doripenem + fluoroquinolone group, read-out: Fluoroquinolone MIC): > 4 µg/mL
Fluoroquinolone MIC [1, 4]: >4 µg/mL
Levofloxacin susceptibility [1, 4]: (NS) (Non-susceptible (NS) ≧4 μg/mL)

C[C@@H](O)[C@H]1C(=O)N2C(C(=O)O)=C(S[C@@H]3CN[C@H](CNS(N)(=O)=O)C3)[C@H](C)[C@H]12 [Doripenem, doripenem monohydrate]
treatment of pneumonia due to A. baumannii [2]: effectively treated
Doripenem MIC [1, 5]: 0.25 μg/mL (2×) and 0.12 μg/mL (2×) and 0.5 μg/mL (2×) and >128 μg/mL and 8 μg/mL and 1 μg/mL
Doripenem susceptibility [1, 5]: (S) (Susceptible (S) ≦1 μg/mL); also recorded: (NS) (Non-susceptible (NS) >2 μg/mL)
MIC ([1]; isolate of each patient, doripenem + fluoroquinolone group, read-out: Doripenem MIC): > 32 µg/mL
Doripenem MIC [1, 6]: 64 μg/mL (2×) and 1 μg/mL (2×) and 0.25 μg/mL and 0.12 μg/mL and >32 μg/mL and 16 μg/mL
Doripenem susceptibility [1, 6]: (NS) (Non-susceptible (NS) >2 μg/mL); also recorded: (S) (Susceptible (S) ≦1 μg/mL)
Doripenem MIC [1, 7]: >32 µg/mL and 32 µg/mL and 1 µg/mL
Doripenem susceptibility [1, 7]: (NS) (Non-susceptible (NS) >2 μg/mL); also recorded: (S) (Susceptible (S) ≦1 μg/mL)
Doripenem susceptibility [1, 4]: (NS) (Non-susceptible (NS) >2 μg/mL)
Doripenem MIC ([1]; isolate of each patient, doripenem + fluoroquinolone group, monohydrate): 32 µg/mL and 16 µg/mL and >32 µg/mL
Doripenem MIC [1, 8]: 0.12 μg/mL (3×) and >32 μg/mL and 1 μg/mL and 0.25 μg/mL
Doripenem susceptibility [1, 8]: (S) (Susceptible (S) ≦1 μg/mL); also recorded: (NS) (Non-susceptible (NS) >2 μg/mL)
treatment effect ([3]; nosocomial pneumonia due to doripenem-susceptible A. baumannii): effective
Clinical Outcome [3, 9]: Cure (7×) and Failure (2×)
Microbiological Outcome [3, 9]: Eradicated; also recorded: Persisted
positive outcome [3, 10]: 77.8%
positive outcome (patients with positive outcome / patients in group) [3, 10]: 7/9

colistin
Colistin MIC [1, 11]: 1 µg/mL
Colistin susceptibility [1, 11]: S (Colistin: Susceptible (S) ≦2 μg/mL)

NC[C@H]1O[C@H](O[C@H]2[C@H](O)[C@@H](O[C@H]3O[C@H](CO)[C@@H](O)[C@H](N)[C@H]3O)[C@H](N)C[C@@H]2N)[C@H](N)C[C@@H]1O [Tobramycin, tobranycin sulfate]
Tobramycin MIC [1, 12]: 0.5 μg/mL (2×) and 4 μg/mL and 0.25 μg/mL
Tobramycin susceptibility [1, 12]: (S) (Tobramycin: Susceptible (S) ≦4 μg/mL)

NCC[C@H](O)C(=O)N[C@@H]1C[C@H](N)[C@@H](O[C@H]2O[C@H](CN)[C@@H](O)[C@H](O)[C@H]2O)[C@H](O)[C@H]1O[C@H]1O[C@H](CO)[C@@H](O)[C@H](N)[C@H]1O [Amikacin, amikacin]
Amikacin MIC [1, 13]: >64 μg/mL (5×) and 4 μg/mL and 1 μg/mL (2×) and 2 μg/mL
Amikacin susceptibility [1, 13]: (NS) (Non-susceptible (NS) ≧32 μg/mL); also recorded: (S) (Amikacin: Susceptible (S) ≦16 μg/mL)
